Key:
[1] = Equilibrium solubility (heated at 80° C. for 15 minutes, cooled to room temperature, observed up to 4 days); type: physicochemical; details: for equilibrium solubility: deionized water, 80° C. for 15 minutes, cooled to room temperature, observed up to 4 days
Source text: (§1) The composition can optionally be expressed in terms of the concentration of one or more steviol glycoside(s). Beneficially, it has been founds that compound(s) 1, 2, 3, and/or 4, can improve solubility of steviol glycosides in an aqueous solution, and therefore compositions can be prepared having a greater concentration of steviol glycosides in solution. As used herein “instantaneous solubility” refers to the solubility of a steviol glycoside, or mixture of steviol glycosides, that are vigorously mixed with deionized water at room temperature (25° C.). As used herein “equilibrium solubility” refers to the solubility of a steviol glycoside, or mixture of steviol glycosides, that are vigorously mixed with deionized water at 80° C. for 15 minutes, cooled to room temperature (25° C.), and then observed up to 4 days. Clear solutions without precipitates are considered soluble. Unless indicated otherwise herein, the term “solubility” refers to “equilibrium solubility.”
(§2) Instantaneous solubility is determined by mixing steviol glycoisde with deionized water vigorously for 10 minutes at room temperature. Equilibrium solubility is determined by heating deionized water with steviol glycoside at 80° C. for 15 minutes and cooling down to room temperature for observation up to 4 days. Clear solutions without precipitates are considered soluble.

[2] = Instantaneous solubility in deionized water at room temperature; type: physicochemical; details: for instantaneous solubility: vigorously mixed with deionized water for 10 minutes at room temperature, clear solution without precipitates
Source text: as §1, §2

[3] = taste, versus sucrose/sugar; cited from earlier work

SMILES	equilibrium solubility at 0.10% ([1]; RebM 0.10% in deionized water)	equilibrium solubility at 0.13% ([1]; RebM 0.13% in deionized water)	equilibrium solubility at 0.20% ([1]; RebM 0.20% in deionized water)	equilibrium solubility ([1]; listed as rebM)	equilibrium solubility ([1]; listed as rebaudioside M)	instantaneous solubility at 0.10% ([2]; RebM 0.10% in deionized water)	instantaneous solubility at 0.13% ([2]; RebM 0.13% in deionized water)	instantaneous solubility [2]	instantaneous solubility ([2]; listed as rebaudioside M)	times sweeter than sucrose [3]	equilibrium solubility at 0.08% ([1]; RebD 0.08% in deionized water)	equilibrium solubility [1] [%]	instantaneous solubility ([2]; listed as rebaudioside D)
C=C1C[C@@]23CC[C@H]4[C@@](C)(CCC[C@@]4(C)C(=O)O[C@@H]4O[C@H](CO)[C@@H](O)[C@H](O[C@@H]5O[C@H](CO)[C@@H](O)[C@H](O)[C@H]5O)[C@H]4O[C@@H]4O[C@H](CO)[C@@H](O)[C@H](O)[C@H]4O)[C@@H]2CC[C@]1(O[C@@H]1O[C@H](CO)[C@@H](O)[C@H](O[C@@H]2O[C@H](CO)[C@@H](O)[C@H](O)[C@H]2O)[C@H]1O[C@@H]1O[C@H](CO)[C@@H](O)[C@H](O)[C@H]1O)C3 [RebM, rebaudioside M]	soluble	soluble	soluble	at least 0.2%	about 0.2%	soluble	soluble	at least 0.13%	about 0.13%				
C=C1C[C@@]23CC[C@H]4[C@@](C)(CCC[C@@]4(C)C(=O)O[C@@H]4O[C@H](CO)[C@@H](O)[C@H](O)[C@H]4O[C@@H]4O[C@H](CO)[C@@H](O)[C@H](O)[C@H]4O)[C@@H]2CC[C@]1(O[C@@H]1O[C@H](CO)[C@@H](O)[C@H](O[C@@H]2O[C@H](CO)[C@@H](O)[C@H](O)[C@H]2O)[C@H]1O[C@@H]1O[C@H](CO)[C@@H](O)[C@H](O)[C@H]1O)C3 [RebD, rebaudioside D]								< 0.08%		200-220 times	soluble	0.08	less than 0.08%

— patent US12030905B2, “Steviol glycoside compounds, compositions for oral ingestion or use, and method for enhancing steviol glycoside solubility” (Cargill, Incorporated, priority 2014, dated 2024)
